According to patent US10233182B2, “Substituted spirocyclic inhibitors of autotaxin” (X-Rx, Inc., priority 2014, dated 2019):
Where a name gives a salt, the structure may show the parent alone.

target: Autotaxin (Homo sapiens (Human), UniProt Q13822); test: Autotaxin LPC Cascade Assay; assay type: biochemical; conditions: Autotaxin 5 nM, LPC 100 μM, choline oxidase/HRP/Ampliflu Red fluorescence read-out, 2% DMSO, RT; read-out: IC50 ATX Activity
Experimental: Autotaxin LPC Cascade Assay:
HA130 and Test Compounds:
Prepare a 1 mM stock of HA130 and a 3 mM stock of each compound in 100% DMSO. Perform a 1:3 serial dilution in DMSO (transfer 5 l of compound to 10 l of DMSO). Add 240 l of buffer to generate a top working concentration of 40 µM (HA130) and 120 µM (test compound) in 4% DMSO.
Ampliflu Red—Prepare a stock of 5 mM from 100 mM in 100% DMSO. Further dilute to a working concentration of 400 μM in buffer (8% DMSO).
Together with compound this yields a 2% DMSO final concentration.
Choline Oxidase/HRP—0.8 U/mL CO and 8 U/mL HRP.
Incubate for 10 mins at RT. Add 5 µl of LPC and incubate for 1 hr on the plate shaker. Prepare the CO/HRP and AR immediately prior to use. Add 2.5 l of CO/HRP and follow with 2.5 l AR. Note order of addition, CO/HRP mix before AR. Read fluorescence intensity (ex/em: 530/590 nm) kinetically for 30 min at RT on the Tecan M1000.

`Cc1cccc(C(=O)N[C@@H](C(=O)N2CCC3(CC2)C(=O)N(C)CN3c2ccccc2)C2CCOCC2)c1` (single isomer, unassigned) [Example 129] was tested. Which IC50 did it give?
Its IC50 is 500 to 1000 nM.

How did the IC50 turn out when `CCc1ccc(F)c(C(=O)N[C@@H](C(=O)N2CCC3(CC2)C(=O)N(C)[C@H](C)N3c2ccc(C(=O)O)cc2)C(C)C)c1` (single isomer, unassigned) [Example 210] was run?
The IC50 was < 500 nM.

How did the IC50 turn out when `CCc1ccc(F)c(C(=O)N[C@@H](C(=O)N2CCC3(CC2)C(=O)N(C)[C@@H](C)N3c2ccc(C(=O)O)cc2)C(C)C)c1` (single isomer, unassigned) [Example 211] was run?
Its IC50 is < 500 nM.

With `Cc1cccc(C(=O)N[C@@H](C(=O)N2CCC3(CC2)C(=O)N(C)C(=O)N3c2ccccc2)C2CCCCC2)c1` [Example 1, (R)—N-(1-Cyclohexyl-2-(3-methyl-2,4-dioxo-1-phenyl-1,3,8-triazaspiro[4.5]decan-8-yl)-2-oxoethyl)-3-methylbenzamide] as the compound, how does the IC50 read?
The IC50 was < 500 nM.

Which IC50 does the source give for `CC(C)[C@@H](NC(=O)c1cccc(F)c1)C(=O)N1CCC2(CC1)C(=O)N(C)C(=O)N2c1ccccc1` [Example 2, (R)-3-Fluoro-N-(3-methyl-1-(3-methyl-2,4-dioxo-1-phenyl-1,3,8-triazaspiro[4.5]decan-8-yl)-1-oxobutan-2-yl)benzamide] here?
The IC50 was ≥ 1000 nM.

Which IC50 does the source give for `Cc1cccc(C(=O)N[C@@H](C(=O)N2CCC3(CC2)C(=O)N(C)C(=O)N3c2ccccc2)C(C)C)c1F` [Example 3, (R)-2-Fluoro-3-methyl-N-(3-methyl-1-(3-methyl-2,4-dioxo-1-phenyl-1,3,8-triazaspiro[4.5]decan-8-yl)-1-oxobutan-2-yl)benzamide] here?
The IC50 was 500 to 1000 nM.

For `CC[C@@H](C)[C@@H](NC(=O)c1cccc(C)c1F)C(=O)N1CCC2(CC1)C(=O)N(C)C(=O)N2c1ccccc1` [Example 4, 2-Fluoro-3-methyl-N-((2R,3R)-3-methyl-1-(3-methyl-2,4-dioxo-1-phenyl-1,3,8-triazaspiro[4.5]decan-8-yl)-1-oxopentan-2-yl)benzamide], which IC50 is on record?
The IC50 was < 500 nM.

`CCc1ccc(F)c(C(=O)N[C@@H](C(=O)N2CCC3(CC2)C(=O)N(CC#N)C(=O)N3c2ccc(OC)cc2)C(C)C)c1` [Example 5, (R)—N-(1-(3-(Cyanomethyl)-1-(4-methoxyphenyl)-2,4-dioxo-1,3,8-triazaspiro[4.5]decan-8-yl)-3-methyl-1-oxobutan-2-yl)-5-ethyl-2-fluorobenzamide] was tested. Which IC50 did it give?
Its IC50 is < 500 nM.

How did the IC50 turn out when `COc1ccc(N2C(=O)N(C)C(=O)C23CCN(C(=O)[C@H](NC(=O)c2cc(C(F)(F)F)ccc2F)C(C)C)CC3)cc1F` [Example 6, (R)-2-Fluoro-N-(1-(1-(3-fluoro-4-methoxyphenyl)-3-methyl-2,4-dioxo-1,3,8-triazaspiro[4.5]decan-8-yl)-3-methyl-1-oxobutan-2-yl)-5-(trifluoromethyl)benzamide] was run?
The IC50 was < 500 nM.

For `CC(C)[C@@H](NC(=O)c1cc(C(F)(F)F)ccc1F)C(=O)N1CCC2(CC1)C(=O)N(C)C(=O)N2c1ccc(C#N)cc1` [Example 7, (R)—N-(1-(1-(4-Cyanophenyl)-3-methyl-2,4-dioxo-1,3,8-triazaspiro[4.5]decan-8-yl)-3-methyl-1-oxobutan-2-yl)-2-fluoro-5-(trifluoromethyl)benzamide], which IC50 is on record?
Its IC50 is < 500 nM.

How did the IC50 turn out when `CC(C)[C@@H](NC(=O)c1cc(C(F)(F)F)ccc1F)C(=O)N1CCC2(CC1)C(=O)N(C)C(=O)N2c1cccc(C#N)c1` [Example 8, (R)—N-(1-(1-(3-Cyanophenyl)-3-methyl-2,4-dioxo-1,3,8-triazaspiro[4.5]decan-8-yl)-3-methyl-1-oxobutan-2-yl)-2-fluoro-5-(trifluoromethyl)benzamide] was run?
Its IC50 is < 500 nM.

Which IC50 does the source give for `CC(C)[C@@H](NC(=O)c1cc(C(F)(F)F)ccc1F)C(=O)N1CCC2(CC1)C(=O)N(C)C(=O)N2c1ccc(S(C)(=O)=O)cc1` [Example 9, (R)-2-Fluoro-N-(3-methyl-1-(3-methyl-1-(4-(methylsulfonyl)phenyl)-2,4-dioxo-1,3,8-triazaspiro[4.5]decan-8-yl)-1-oxobutan-2-yl)-5-(trifluoromethyl)benzamide] here?
The IC50 was 500 to 1000 nM.

With `COc1cccc(N2C(=O)N(C)C(=O)C23CCN(C(=O)[C@H](NC(=O)c2cc(C(F)(F)F)ccc2F)C(C)C)CC3)c1` [Example 10, (R)-2-Fluoro-N-(1-(1-(3-methoxyphenyl)-3-methyl-2,4-dioxo-1,3,8-triazaspiro[4.5]decan-8-yl)-3-methyl-1-oxobutan-2-yl)-5-(trifluoromethyl)benzamide] as the compound, how does the IC50 read?
Its IC50 is < 500 nM.

`CC(C)[C@@H](NC(=O)c1cc(C(F)(F)F)ccc1F)C(=O)N1CCC2(CC1)C(=O)N(C)C(=O)N2c1ccc2oc(=O)n(C)c2c1` [Example 11, (R)-2-Fluoro-N-(3-methyl-1-(3-methyl-1-(3-methyl-2-oxo-2,3-dihydrobenzo[d]oxazol-5-yl)-2,4-dioxo-1,3,8-triazaspiro[4.5]decan-8-yl)-1-oxobutan-2-yl)-5-(trifluoromethyl)benzamide] was tested. Which IC50 did it give?
Its IC50 is ≥ 1000 nM.

With `CC(C)[C@@H](NC(=O)c1cc(C(F)(F)F)ccc1F)C(=O)N1CCC2(CC1)C(=O)N(C)C(=O)N2c1ccc2c(cnn2C)c1` [Example 12, (R)-2-Fluoro-N-(3-methyl-1-(3-methyl-1-(1-methyl-1H-indazol-5-yl)-2,4-dioxo-1,3,8-triazaspiro[4.5]decan-8-yl)-1-oxobutan-2-yl)-5-(trifluoromethyl)benzamide] as the compound, how does the IC50 read?
The IC50 was < 500 nM.

For `CC(C)[C@@H](NC(=O)c1cc(C(F)(F)F)ccc1F)C(=O)N1CCC2(CC1)C(=O)N(C)C(=O)N2c1ccc2nn(C)cc2c1` [Example 13, (R)-2-Fluoro-N-(3-methyl-1-(3-methyl-1-(2-methyl-2H-indazol-5-yl)-2,4-dioxo-1,3,8-triazaspiro[4.5]decan-8-yl)-1-oxobutan-2-yl)-5-(trifluoromethyl)benzamide], which IC50 is on record?
Its IC50 is < 500 nM.

How did the IC50 turn out when `CC(C)[C@@H](NC(=O)c1cc(C(F)(F)F)ccc1F)C(=O)N1CCC2(CC1)C(=O)N(C)C(=O)N2c1ccc2nccn2c1` [Example 14, (R)-2-Fluoro-N-(1-(1-(imidazo[1,2-a]pyridin-6-yl)-3-methyl-2,4-dioxo-1,3,8-triazaspiro[4.5]decan-8-yl)-3-methyl-1-oxobutan-2-yl)-5-(trifluoromethyl)benzamide trifluoroacetic Acid Salt] was run?
The IC50 was < 500 nM.

For `CC(C)[C@@H](NC(=O)c1cc(C(F)(F)F)ccc1F)C(=O)N1CCC2(CC1)C(=O)N(C)C(=O)N2c1cccc(S(C)(=O)=O)c1` [Example 15, (R)-2-Fluoro-N-(3-methyl-1-(3-methyl-1-(3-(methylsulfonyl)phenyl)-2,4-dioxo-1,3,8-triazaspiro[4.5]decan-8-yl)-1-oxobutan-2-yl)-5-(trifluoromethyl)benzamide], which IC50 is on record?
The IC50 was ≥ 1000 nM.

Which IC50 does the source give for `CC(C)[C@@H](NC(=O)c1cc(C(F)(F)F)ccc1F)C(=O)N1CCC2(CC1)C(=O)N(C)C(=O)N2c1ccn(C)n1` [Example 16, (R)-2-Fluoro-N-(3-methyl-1-(3-methyl-1-(1-methyl-1H-pyrazol-3-yl)-2,4-dioxo-1,3,8-triazaspiro[4.5]decan-8-yl)-1-oxobutan-2-yl)-5-(trifluoromethyl)benzamide] here?
Its IC50 is ≥ 1000 nM.

With `CC(C)[C@@H](NC(=O)c1cc(C(F)(F)F)ccc1F)C(=O)N1CCC2(CC1)C(=O)N(C)C(=O)N2c1cnn(C)c1` [Example 17, (R)-2-Fluoro-N-(3-methyl-1-(3-methyl-1-(1-methyl-1H-pyrazol-4-yl)-2,4-dioxo-1,3,8-triazaspiro[4.5]decan-8-yl)-1-oxobutan-2-yl)-5-(trifluoromethyl)benzamide] as the compound, how does the IC50 read?
The IC50 was ≥ 1000 nM.

How did the IC50 turn out when `CCc1ccc(F)c(C(=O)N[C@@H](C(=O)N2CCC3(CC2)C(=O)N(C)C(=O)N3c2ccc3cnc(C)n3c2)C(C)C)c1` [Example 18, (R)-5-Ethyl-2-fluoro-N-(3-methyl-1-(3-methyl-1-(3-methylimidazo[1,5-a]pyridin-6-yl)-2,4-dioxo-1,3,8-triazaspiro[4.5]decan-8-yl)-1-oxobutan-2-yl)benzamide] was run?
The IC50 was < 500 nM.

How did the IC50 turn out when `Cc1nc2ccc(N3C(=O)N(C)C(=O)C34CCN(C(=O)[C@H](NC(=O)c3cc(C(F)(F)F)ccc3F)C(C)C)CC4)cc2[nH]1` [Example 19, (R)-2-Fluoro-N-(3-methyl-1-(3-methyl-1-(2-methyl-1H-benzo[d]imidazol-6-yl)-2,4-dioxo-1,3,8-triazaspiro[4.5]decan-8-yl)-1-oxobutan-2-yl)-5-(trifluoromethyl)benzamide trifluoroacetic Acid Salt] was run?
Its IC50 is ≥ 1000 nM.

With `CC(C)[C@@H](NC(=O)c1cc(C(F)(F)F)ccc1F)C(=O)N1CCC2(CC1)C(=O)N(C)C(=O)N2c1cnc2[nH]ccc2c1` [Example 20, (R)-2-Fluoro-N-(3-methyl-1-(3-methyl-2,4-dioxo-1-(1H-pyrrolo[2,3-b]pyridin-5-yl)-1,3,8-triazaspiro[4.5]decan-8-yl)-1-oxobutan-2-yl)-5-(trifluoromethyl)benzamide] as the compound, how does the IC50 read?
Its IC50 is < 500 nM.

For `CC(C)[C@@H](NC(=O)c1cc(C(F)(F)F)ccc1F)C(=O)N1CCC2(CC1)C(=O)N(C)C(=O)N2c1ccc2c(c1)OCCN2` [Example 21, (R)—N-(1-(1-(3,4-Dihydro-2H-benzo[b][1,4]oxazin-7-yl)-3-methyl-2,4-dioxo-1,3,8-triazaspiro[4.5]decan-8-yl)-3-methyl-1-oxobutan-2-yl)-2-fluoro-5-(trifluoromethyl)benzamide], which IC50 is on record?
The IC50 was < 500 nM.

With `CC(C)[C@@H](NC(=O)c1cc(C(F)(F)F)ccc1F)C(=O)N1CCC2(CC1)C(=O)N(C)C(=O)N2c1ccc(=O)[nH]c1` [Example 22, (R)-2-Fluoro-N-(3-methyl-1-(3-methyl-2,4-dioxo-1-(6-oxo-1,6-dihydropyridin-3-yl)-1,3,8-triazaspiro[4.5]decan-8-yl)-1-oxobutan-2-yl)-5-(trifluoromethyl)benzamide] as the compound, how does the IC50 read?
The IC50 was ≥ 1000 nM.
